The text below walks through data of ChEMBL document CHEMBL1201862, “PubChem BioAssay data set” (2004).

Test in all cases: NCI-60 cell line screen, 48 h
The test system of test [1] is SNB-75.
Test [2] relates to UO-31.
For test [3], the system named is MOLT-4.
For test [4], the system named is OVCAR-3.
Test [5] deals with HCT-116.
Test [6] relates to HCT-15.
Test [7] has as its system UACC-257.
The subject of test [8] is DU-145.
Test [9] has as its system OVCAR-5.
The subject of test [10] is RPMI-8226.
Test [11] has as its system SNB-19.
The test system of test [12] is IGROV-1.
The test system of test [13] is OVCAR-8.
The test system of test [14] is SK-MEL-5.
Test [15] concerns CAKI-1.
The subject of test [16] is SW-620.
The subject of test [17] is M19-MEL.
Test [18] deals with KM-20L2.
Test [19] deals with XF498.
Test [20] has as its system SNB-78.

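A five-concentration, 48-hour dose response in 96-well plates underlies each endpoint, interpolated linearly between surrounding concentrations. GI50: concentration for 50% inhibition of growth.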 The source made the active and inactive calls. Rule as the data show it: active = GI50 up to about 1.1 µM and inactive = higher. Where only a bound is given, the exact number is not on record here.

For `CCOC(=O)NC(Nc1ncccn1)(C(F)(F)F)C(F)(F)F`, the GI50 in test [1] is > 100 µM (inactive); in test [2], > 100 µM (inactive); in test [3], > 100 µM (inactive); in test [4], > 100 µM (inactive); in test [5] it was > 100 µM (inactive); in [6], greater than 100 µM. Also, the GI50 in [7], in test [8], in [9], in test [10] and in test [11] was > 100 µM (inactive) in each case.
As for `CCN1c2ccccc2-n2c(C)nnc2-c2c(-c3ccccc3)n[nH]c21`, the GI50 in test [12] is 21.4 µM (inactive); in test [1] it was 67 µM (inactive); in [2], 44.8 µM (inactive); in [3] it was 18.2 µM (inactive); in [4] it was 36.4 µM (inactive); in test [5], 26.5 µM (inactive). Moreover, the GI50 was 11.1 µM in test [6]; 24.7 µM (inactive) in test [13]; > 100 µM (inactive) in test [7]; 36.1 µM (inactive) in test [8]; 14.5 µM (inactive) in [14]; > 100 µM (inactive) in [9]. In addition, the GI50 was > 10 µM (inactive) in test [15], 14.8 µM (inactive) in test [10], 36.2 µM (inactive) in test [16] and 42.9 µM (inactive) in test [11].
Regarding `Cc1cc(NC(=S)Nc2ccccc2)c(NC(=S)Nc2ccccc2)cc1C`, the GI50 in [12] is 22.8 µM (inactive); in test [17], 23.3 µM (inactive); in test [1], 27 µM (inactive); in [2], 21.6 µM (inactive); in test [18] it was 36.7 µM (inactive); in test [3] it was 12.8 µM (inactive). For the same molecule, the GI50 in [19] was 16.4 µM (inactive); in test [4], 21.1 µM (inactive); in test [5], 14.3 µM (inactive); in test [6] it was 13.8 µM; in test [13], 40.1 µM (inactive); in [7], 44 µM (inactive). In addition, the GI50 is 11.4 µM (inactive) in test [14]; > 65 µM (inactive) in test [9]; 9.91 µM (inactive) in [15]; 8.47 µM (inactive) in test [10]; 11.6 µM (inactive) in test [16]; 47.9 µM (inactive) in test [11].
`CC1C(=O)C(C)C(c2ccco2)N(N=O)C1c1ccco1` (configuration not stated): the GI50 in test [12] was > 100 µM (inactive); in test [17], > 100 µM (inactive); in test [1], > 82.8 µM (inactive); in test [2], > 100 µM (inactive); in [18], > 100 µM (inactive); in test [3], > 100 µM (inactive). Moreover, the GI50 in [19] is < 0.01 µM (active); in test [4], > 100 µM (inactive); in [5], > 100 µM (inactive); in test [20], > 100 µM (inactive); in test [6], greater than 100 µM; in test [13], > 100 µM (inactive). Also, the GI50 in test [7], in [14], in [9], in [15], in [10] and in test [16] was > 100 µM (inactive) in each case. Further, the GI50 in test [11] was > 84.1 µM (inactive).
For `O=C(N/C(=C\c1ccccc1[N+](=O)[O-])c1nc2ccccc2[nH]1)c1ccccc1`, the GI50 is > 100 µM (inactive) in test [12]; > 100 µM (inactive) in test [17]; 45.8 µM (inactive) in test [2]; > 100 µM (inactive) in test [18]; 35.1 µM (inactive) in test [3]; > 100 µM (inactive) in [19]. For the same molecule, the GI50 was 68.1 µM (inactive) in test [4]; 92.7 µM (inactive) in test [20]; 88.9 µM in test [6]; 71.3 µM (inactive) in [13]; 72.8 µM (inactive) in test [14]; > 100 µM (inactive) in test [9]. For the same molecule, the GI50 was > 100 µM (inactive) in test [15], 58.5 µM (inactive) in test [16] and > 100 µM (inactive) in test [11].
`CCOc1ncn(-c2ccc(NC(=S)Nc3ncccn3)cc2)n1`: the GI50 in [12] is 26.5 µM (inactive); in test [1], 12.1 µM (inactive); in [2] it was 18.6 µM (inactive); in test [3], 20.1 µM (inactive); in test [4], 37.7 µM (inactive); in test [5], 32.5 µM (inactive). Further, the GI50 in test [6] was 39 µM; in test [13], 24.8 µM (inactive); in test [7] it was 28.9 µM (inactive); in test [8] it was 66.8 µM (inactive); in [14], 18.2 µM (inactive); in [9] it was 54.8 µM (inactive). Moreover, the values for the GI50 in [10], in [16] and in test [11] were 10.6 µM (inactive), 54.6 µM (inactive) and 54 µM (inactive), respectively.
Take `CC(Sc1ccccc1)C(CO)(CO)[N+](=O)[O-]` (configuration not stated): the GI50 in test [12] is 15.6 µM (inactive); in test [17], 16.4 µM (inactive); in test [1], 20.5 µM (inactive); in test [2] it was 10.6 µM (inactive); in test [18], 17.2 µM (inactive); in [3], 3.64 µM (inactive). The GI50 in test [4] is 15.2 µM (inactive); in test [5], 17.8 µM (inactive); in test [20], 22.3 µM (inactive); in [6] it was 11.5 µM; in [13] it was 14.8 µM (inactive); in [7], 14 µM (inactive). Further, the GI50 in test [14] is 12.7 µM (inactive); in [9], 22.3 µM (inactive); in test [15], 17.9 µM (inactive); in test [10] it was 18.9 µM (inactive); in test [16] it was 14.4 µM (inactive); in [11], 21.4 µM (inactive).
In the case of `CCC1C(C#N)=C(O)NC(O)=C1C#N`, the GI50 in test [12], in [17], in test [1], in test [2], in test [18] and in test [19] was > 100 µM (inactive) in each case. Moreover, the GI50 in [4] is > 100 µM (inactive); in [5], > 100 µM (inactive); in test [20] it was > 100 µM (inactive); in test [6], greater than 100 µM; in [13] it was > 100 µM (inactive); in test [7] it was > 100 µM (inactive). Also, the GI50 in test [14], in test [9], in [15], in [10], in test [16] and in test [11] was > 100 µM (inactive) each time.
As for `CCP(=O)(CC)C(Cl)(Cl)C(O)C(Cl)(Cl)Cl` (configuration not stated), the GI50 in [12], in [1], in test [2], in test [3], in test [4] and in test [5] was > 100 µM (inactive) throughout. The GI50 in test [6] is greater than 100 µM; in test [13], > 100 µM (inactive); in [7] it was > 100 µM (inactive); in test [8], > 100 µM (inactive); in test [14], > 100 µM (inactive); in test [9], > 100 µM (inactive). The GI50 in [15], in [10], in [16] and in test [11] was > 100 µM (inactive) in each case.
Turning to `CCOC(=O)Cc1cc(OC)c(OC)cc1/C(Cl)=C(\C=O)c1ccc(OC)c(OC)c1`, the GI50 in [12] is 28.6 µM (inactive); in test [17] it was 22.6 µM (inactive); in [1] it was 32.1 µM (inactive); in test [2] it was 26.1 µM (inactive); in test [18], 15.3 µM (inactive); in test [3], 16.9 µM (inactive). Also, the GI50 in [19] is 20 µM (inactive); in test [4], 13.8 µM (inactive); in [5], 14.4 µM (inactive); in test [20] it was 22.3 µM (inactive); in test [6], 17.5 µM; in test [13] it was 25.5 µM (inactive). In addition, the GI50 in [7] is 18.9 µM (inactive); in test [14], 17.1 µM (inactive); in test [15] it was 29.4 µM (inactive); in test [10] it was 9.75 µM (inactive); in test [16], 22.9 µM (inactive); in test [11], 34.4 µM (inactive).
For the molecule `CC(=O)c1c(-c2ccco2)c(C#N)c(=S)n(C2OC(CO)C(O)C(O)C2O)c1-c1ccccc1` (configuration not stated), the GI50 is > 100 µM (inactive) in [12]; 69.7 µM (inactive) in test [1]; 51.2 µM (inactive) in [2]; 31.6 µM (inactive) in [3]; > 100 µM (inactive) in test [4]; 66.2 µM (inactive) in test [5]. Further, the GI50 was 73.3 µM in [6]; 81.8 µM (inactive) in [13]; > 100 µM (inactive) in test [7]; 87.3 µM (inactive) in test [8]; 35.7 µM (inactive) in test [14]; > 100 µM (inactive) in test [9]. For the same molecule, the GI50 is > 100 µM (inactive) in test [15], > 100 µM (inactive) in [10], 76 µM (inactive) in test [16] and 22.4 µM (inactive) in [11].
In the case of `COc1ccc(-c2cc(O)c3c(C)ccnc3n2)cc1`, the GI50 in [12] was 5.64 µM (inactive); in [2], 27.8 µM (inactive); in [3], 12.1 µM (inactive); in test [6] it was 5.61 µM; in test [13], 25.9 µM (inactive); in test [7] it was 33.7 µM (inactive). The GI50 in test [8] is 28.8 µM (inactive); in test [9], 20.5 µM (inactive); in test [15], 33.8 µM (inactive); in test [10] it was 9.31 µM (inactive); in test [16] it was 4.81 µM (inactive); in test [11], 36.8 µM (inactive).
